Test results published in patent US20110129935A1, “PROTEIN STABILITY ASSAY USING A FLUORESCENT REPORTER OF PROTEIN FOLDING” (James Cook University, priority 2008, published 2011).

Key:
CAT-GFP = CAT-GFP (Escherichia coli, UniProt P62577); type: binding; settings: 10 mM chloramphenicol, 9.2 mM ampicillin or 6.4% ethanol
Description: (§1) Protein samples (6 or 10 μl) were incubated along a temperature gradient in a thermocycler for 5 minutes or 30 minutes for the determination of Tagg, or at a constant temperature and increasing times to determine kagg. After heat treatment and centrifugation as described above, 3 or 5 μl of supernatant were transferred to a black 96-well plate (Nunclon, Nunc, Rochester, N.Y., USA), diluted with 47 or 50 μl respectively of Buffer A or Buffer B and the fluorescent Ffold was determined with a fluorescence plate reader (Victor V Wallace, Perkin-Elmer, Melbourne VIC, Australia). The excitation and emission filters were set at 355 nm and 535 nm respectively, with 40 nm band-width. Data were normalized against the fluorescence of an untreated sample.
(§2) To determine the effect of ligands, CAT-GFP reaction premix contained 9.2 μl of CAT-GFP (71 μM in Buffer A), 51.6 μl of Buffer A and 4.2 μl of either 50 mg/ml chloramphenicol in ethanol or 50 mg/ml ampicillin in water. GK-GFP reaction premix contained 9.3 μl of GK-GFP (70 μM), 49.20 of Buffer A and 6.5 μl of either Buffer A+10 mM glycerol or Buffer A+10 mM glucose. Reaction volume was 10 μl and 5 μl of the soluble fraction was analysed by plate reader after centrifugation.
The S method was then further developed to evaluate the effect of ligand binding and additives in a rapid throughput format for the three test proteins using replicates of single timepoints (FIG. 6a-6c). […] Indeed, the temperature used to test for chloramphenicol binding had to be kept quite low and for a short time as GFP would have been destabilized in more stringent conditions. […] This non-specific stabilization could also be attributed to the low stringency of the conditions.

GK-GFP = GK-GFP (Escherichia coli, UniProt P0A6F3); assay: Rapid throughput S method, Ffold of GK-GFP with ligands or other proteins; type: binding, E. coli; settings: 1 mM glycerol in presence of BSA 15 μM
Description: as §1
as §2, with “centrifugation. […]” for “centrifugation.”

Tus-GFP = Tus-GFP (Escherichia coli, UniProt P16525, Q80R); assay: Isothermal aggregation of Tus-GFP with additives (kagg, S method); set-up: species or system E. coli; settings: 46° C., 25% glycerol in 0.5× Buffer B
Description: as §1, with “sample. […]” for “sample.”
The kagg (s^−1) measured the loss of fluorescence of the soluble fraction of proteins over time. The kagg values were determined by the exponential fit of normalized Ffold as follows:
To evaluate the kinetic parameters of the system, a 96-well plate format was designed that enabled measurement of the residual Ffold of Tus-GFP over time. Isothermal aggregation reactions were monitored at 46° C. to quantify the effect of stabilizing or destabilizing salts and additives on the kagg of Tus-GFP (FIG. 3). […]

Sequence of GK-GFP (P0A6F3 other isoform, or with tags, fused parts or gaps): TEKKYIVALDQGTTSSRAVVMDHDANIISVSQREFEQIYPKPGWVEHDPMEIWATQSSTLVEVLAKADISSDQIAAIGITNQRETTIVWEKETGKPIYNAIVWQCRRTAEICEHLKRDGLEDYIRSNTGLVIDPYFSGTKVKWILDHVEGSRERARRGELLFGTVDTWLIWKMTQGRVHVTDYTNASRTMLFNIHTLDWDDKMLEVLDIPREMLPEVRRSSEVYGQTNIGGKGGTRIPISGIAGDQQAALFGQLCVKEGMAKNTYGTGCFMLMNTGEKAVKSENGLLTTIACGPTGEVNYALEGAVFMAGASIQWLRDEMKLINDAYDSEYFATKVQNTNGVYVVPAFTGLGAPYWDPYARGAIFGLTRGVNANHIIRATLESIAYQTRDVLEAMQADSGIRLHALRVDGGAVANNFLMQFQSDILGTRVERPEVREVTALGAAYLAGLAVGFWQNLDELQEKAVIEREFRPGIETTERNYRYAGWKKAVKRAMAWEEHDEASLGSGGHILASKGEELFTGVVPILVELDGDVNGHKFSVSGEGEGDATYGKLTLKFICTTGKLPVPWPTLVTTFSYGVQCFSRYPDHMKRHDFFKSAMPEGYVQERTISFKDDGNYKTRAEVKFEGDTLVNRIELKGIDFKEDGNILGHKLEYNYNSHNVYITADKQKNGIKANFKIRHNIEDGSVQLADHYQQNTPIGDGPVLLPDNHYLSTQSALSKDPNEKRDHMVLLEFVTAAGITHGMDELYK

Row | Compound | stabilization of CAT-GFP (Ffold) (CAT-GFP) | stabilization of GK-GFP (Ffold) (GK-GFP) | stabilization effect on Tus-GFP (kagg) (Tus-GFP)
1 | CC1(C)S[C@@H]2[C@H](NC(=O)[C@H](N)c3ccccc3)C(=O)N2[C@H]1C(=O)O [ampicillin] | moderate stabilization |  | 
2 | O=C(N[C@H](CO)[C@H](O)c1ccc([N+](=O)[O-])cc1)C(Cl)Cl [chloramphenicol] | stabilizing |  | 
3 | OCC(O)CO [glycerol] |  | almost completely stabilized | largest stabilization effect
4 | CCO [ethanol] | almost the same stabilizing effect |  | 
